Active and inactive are the calls of the source. The calls are words filed in the database; no cut-off is given here.
Tests used:
[1] = target: T1, Bifunctional methylenetetrahydrofolate dehydrogenase/cyclohydrolase, mitochondrial (Homo sapiens) (UniProt P13995); test: Uncompetitive inhibition of C-terminal His-tagged human MTHFD2 (36 to 350 residues) expressed in insect cells assessed as decrease in Km by using varying levels of tetrahydrofolate as substrate by double-reciprocal plot analysis; conditions: time 10.0 min
T1 sequence (whole entry): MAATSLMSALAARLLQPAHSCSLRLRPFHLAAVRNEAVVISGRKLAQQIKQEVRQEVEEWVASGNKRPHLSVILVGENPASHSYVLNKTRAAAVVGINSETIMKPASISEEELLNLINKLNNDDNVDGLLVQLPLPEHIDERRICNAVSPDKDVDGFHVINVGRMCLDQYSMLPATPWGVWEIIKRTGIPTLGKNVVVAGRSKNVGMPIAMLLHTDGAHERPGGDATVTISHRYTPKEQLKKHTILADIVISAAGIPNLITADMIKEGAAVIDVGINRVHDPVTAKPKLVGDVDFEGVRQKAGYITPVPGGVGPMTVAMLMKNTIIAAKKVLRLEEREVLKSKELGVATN

[2] = target: T1, Bifunctional methylenetetrahydrofolate dehydrogenase/cyclohydrolase, mitochondrial (Homo sapiens); test: Uncompetitive inhibition of C-terminal His-tagged human MTHFD2 (36 to 350 residues) expressed in insect cells assessed as decrease in Vmax using varying levels of tetrahydrofolate as substrate by double-reciprocal plot analysis; conditions: time 10.0 min

- inhibition [1]: Active
- inhibition [2]: Active
Structure (SMILES): Cc1cc(Nc2nc3c(c(=O)n(Cc4cc5c(Cl)cccc5[nH]4)c(=O)n3C)n2C)nc(CCC(=O)O)n1

From ChEMBL document CHEMBL5030528, “Xanthine Derivatives Reveal an Allosteric Binding Site in Methylenetetrahydrofolate Dehydrogenase 2 (MTHFD2)” (J Med Chem, 2021)
